Measured values as given in publication PMC5218480 (PLoS ONE, 2017).

Tested on: MV-4-11 cells
Assay: Gene expression microarray analysis (Affymetrix PrimeView) and GSEA
Type: cell-based, human
Set-up: RFU PODN (11730768_x_at) / Fold change /veh PODN (11730768_x_at) / RFU LINC00158 (11744669_a_at) / Fold change /veh LINC00158 (11744669_a_at) / RFU DUSP10 (11751237_a_at) / Fold change /veh DUSP10 (11751237_a_at) / RFU ID3 (11757404_x_at) / Fold change /veh ID3 (11757404_x_at) / RFU PLEKHG5 (11737974_s_at) / Fold change /veh PLEKHG5 (11737974_s_at) / RFU LRRC4B (11730491_at) / Fold change /veh LRRC4B (11730491_at) / RFU GIMAP4 (11747438_a_at) / Fold change /veh GIMAP4 (11747438_a_at) / RFU KRT8 (11758183_x_at) / Fold change /veh KRT8 (11758183_x_at) / RFU CNN1 (11734310_a_at) / Fold change /veh CNN1 (11734310_a_at) / RFU VPS37D (11726825_at) / Fold change /veh VPS37D (11726825_at) / RFU C10orf10 (11716522_x_at) / Fold change /veh C10orf10 (11716522_x_at) / RFU KIR2DL2 /// KIR2DL4 /// KIR2DL5A /// KIR2DL5B /// KIR2DS1 /// KIR2DS2 /// KIR2DS3 /// KIR2DS4 /// KIR3DL3 /// KIR3DL3 /// KIR3DS1 (11738374_at) / Fold change /veh KIR2DL2 /// KIR2DL4 /// KIR2DL5A /// KIR2DL5B /// KIR2DS1 /// KIR2DS2 /// KIR2DS3 /// KIR2DS4 /// KIR3DL3 /// KIR3DL3 /// KIR3DS1 (11738374_at) / RFU C1QL1 (11718748_at) / Fold change /veh C1QL1 (11718748_at) / RFU TMPRSS4 (11747572_a_at) / Fold change /veh TMPRSS4 (11747572_a_at) / RFU HAMP (11756126_x_at) / Fold change /veh HAMP (11756126_x_at) / RFU RNFT2 (11725882_a_at) / Fold change /veh RNFT2 (11725882_a_at) / RFU NR4A2 (11747474_a_at) / Fold change /veh NR4A2 (11747474_a_at) / RFU ABCC12 (11746883_a_at) / Fold change /veh ABCC12 (11746883_a_at) / RFU TMEM136 (11760407_x_at) / Fold change /veh TMEM136 (11760407_x_at) / RFU CLDN22 /// WWC2 (11732394_at) / Fold change /veh CLDN22 /// WWC2 (11732394_at) / RFU HLA-DPB1 (11760878_x_at) / Fold change /veh HLA-DPB1 (11760878_x_at) / RFU SPINT1 (11716480_a_at) / Fold change /veh SPINT1 (11716480_a_at) / RFU GAP43 (11754022_s_at) / Fold change /veh GAP43 (11754022_s_at) / RFU A4GNT (11735810_at) / Fold change /veh A4GNT (11735810_at) / RFU PRB3 (11715151_x_at) / Fold change /veh PRB3 (11715151_x_at) / RFU TUBB4B (11761932_at) / Fold change /veh TUBB4B (11761932_at) / RFU CAPN14 (11732068_a_at) / Fold change /veh CAPN14 (11732068_a_at) / RFU TMCC2 (11721928_a_at) / Fold change /veh TMCC2 (11721928_a_at) / RFU IRGQ (11745062_a_at) / Fold change /veh IRGQ (11745062_a_at) / RFU FAM174B (11720279_a_at) / Fold change /veh FAM174B (11720279_a_at) / RFU TMPRSS4 (11748680_a_at) / Fold change /veh TMPRSS4 (11748680_a_at) / RFU FAM212B (11763350_a_at) / Fold change /veh FAM212B (11763350_a_at) / RFU PLEKHG5 (11743358_a_at) / Fold change /veh PLEKHG5 (11743358_a_at) / RFU ZSCAN30 (11745921_a_at) / Fold change /veh ZSCAN30 (11745921_a_at) / RFU CMKLR1 (11741424_a_at) / Fold change /veh CMKLR1 (11741424_a_at) / RFU LOC101060620 /// MAPK8IP1 (11723275_at) / Fold change /veh LOC101060620 /// MAPK8IP1 (11723275_at) / RFU SPTSSB (11747773_x_at) / Fold change /veh SPTSSB (11747773_x_at) / RFU PRSS12 (11739890_at) / Fold change /veh PRSS12 (11739890_at) / RFU BIN1 (11741810_x_at) / Fold change /veh BIN1 (11741810_x_at) / RFU WNT11 (11732464_a_at) / Fold change /veh WNT11 (11732464_a_at) / RFU C10orf10 (11716521_a_at) / Fold change /veh C10orf10 (11716521_a_at) / RFU C5orf56 (11738089_at) / Fold change /veh C5orf56 (11738089_at) / RFU CYB561 (11721691_x_at) / Fold change /veh CYB561 (11721691_x_at) / RFU ANKRD19P (11752326_a_at) / Fold change /veh ANKRD19P (11752326_a_at) / RFU OR2T12 /// OR2T33 /// OR2T8 (11738714_s_at) / Fold change /veh OR2T12 /// OR2T33 /// OR2T8 (11738714_s_at) / RFU VCAN (11748164_a_at) / Fold change /veh VCAN (11748164_a_at) / RFU JSRP1 (11732532_at) / Fold change /veh JSRP1 (11732532_at) / RFU KRTAP10-11 (11738290_x_at) / Fold change /veh KRTAP10-11 (11738290_x_at) / RFU MYO3A (11730013_a_at) / Fold change /veh MYO3A (11730013_a_at) / RFU EBF3 (11725865_a_at) / Fold change /veh EBF3 (11725865_a_at) / RFU CAMK2N1 (11719241_x_at) / Fold change /veh CAMK2N1 (11719241_x_at) / RFU C5orf56 (11738088_a_at) / Fold change /veh C5orf56 (11738088_a_at) / RFU OLFML3 (11715873_a_at) / Fold change /veh OLFML3 (11715873_a_at) / RFU LOC100653217 /// NTM (11731650_a_at) / Fold change /veh LOC100653217 /// NTM (11731650_a_at) / RFU MAPK11 (11762145_a_at) / Fold change /veh MAPK11 (11762145_a_at) / RFU FIZ1 (11724087_x_at) / Fold change /veh FIZ1 (11724087_x_at) / RFU OASL (11726364_x_at) / Fold change /veh OASL (11726364_x_at) / RFU SOX15 (11748057_x_at) / Fold change /veh SOX15 (11748057_x_at) / RFU CD79A (11719716_a_at) / Fold change /veh CD79A (11719716_a_at) / RFU HIST1H1D (11736915_at) / Fold change /veh HIST1H1D (11736915_at) / RFU CASKIN2 (11723855_a_at) / Fold change /veh CASKIN2 (11723855_a_at) / RFU LOC730098 (11760151_x_at) / Fold change /veh LOC730098 (11760151_x_at) / RFU OR4N2 (11742367_at) / Fold change /veh OR4N2 (11742367_at) / RFU PRRT2 (11749266_a_at) / Fold change /veh PRRT2 (11749266_a_at) / RFU SNX32 (11753110_a_at) / Fold change /veh SNX32 (11753110_a_at) / RFU CDHR5 (11726645_a_at) / Fold change /veh CDHR5 (11726645_a_at) / RFU RCAN1 (11760418_a_at) / Fold change /veh RCAN1 (11760418_a_at) / RFU FAM167A (11723789_a_at) / Fold change /veh FAM167A (11723789_a_at) / RFU FAM26E (11764081_at) / Fold change /veh FAM26E (11764081_at) / RFU ISYNA1 (11749810_s_at) / Fold change /veh ISYNA1 (11749810_s_at) / RFU ACY1 (11761880_at) / Fold change /veh ACY1 (11761880_at) / RFU 11764098_at / Fold change /veh 11764098_at / RFU SAMD14 (11745864_x_at) / Fold change /veh SAMD14 (11745864_x_at) / RFU NPB (11741838_a_at) / Fold change /veh NPB (11741838_a_at) / RFU TMPRSS6 (11731388_a_at) / Fold change /veh TMPRSS6 (11731388_a_at) / RFU KRTAP10-2 (11738614_at) / Fold change /veh KRTAP10-2 (11738614_at) / RFU ARHGAP8 /// PRR5-ARHGAP8 (11727945_x_at) / Fold change /veh ARHGAP8 /// PRR5-ARHGAP8 (11727945_x_at) / RFU KRTAP5-7 /// NADSYN1 (11734609_at) / Fold change /veh KRTAP5-7 /// NADSYN1 (11734609_at) / RFU RASL12 (11751679_a_at) / Fold change /veh RASL12 (11751679_a_at) / RFU CDKN2B (11736163_a_at) / Fold change /veh CDKN2B (11736163_a_at) / RFU PRF1 (11729649_at) / Fold change /veh PRF1 (11729649_at) / RFU, ZNF638 /// ZNF638-IT1 / Fold change vs veh, ZNF638 /// ZNF638-IT1 / RFU, PANK3 / Fold change vs veh, PANK3 / RFU, SH3YL1 / Fold change vs veh, SH3YL1 / RFU, ZEB2 / Fold change vs veh, ZEB2 / RFU, NRIP1 / Fold change vs veh, NRIP1 / RFU, PTTG1IP / Fold change vs veh, PTTG1IP / RFU, CAPN2 / Fold change vs veh, CAPN2 / RFU, MED14 / Fold change vs veh, MED14 / RFU, SNORA58 / Fold change vs veh, SNORA58 / RFU, C1orf63 / Fold change vs veh, C1orf63 / RFU, LRRFIP1 / Fold change vs veh, LRRFIP1 / RFU, NDUFAF7 / Fold change vs veh, NDUFAF7 / RFU, SLC12A2 / Fold change vs veh, SLC12A2 / RFU, IBTK / Fold change vs veh, IBTK / RFU, ESF1 / Fold change vs veh, ESF1 / Fold change vs veh, TMEM50B / RFU, TAOK1 / Fold change vs veh, TAOK1 / RFU, ACBD3 / Fold change vs veh, ACBD3 / RFU, TMA16 / Fold change vs veh, TMA16 / RFU, RWDD3 / Fold change vs veh, RWDD3 / RFU, BCAT1 / Fold change vs veh, BCAT1 / RFU, EDEM3 / Fold change vs veh, EDEM3 / RFU, TMEM33 / Fold change vs veh, TMEM33 / RFU, WDR75 / Fold change vs veh, WDR75 / RFU, AHCTF1 / Fold change vs veh, AHCTF1 / RFU, TFRC / Fold change vs veh, TFRC / RFU, ZDHHC17 / Fold change vs veh, ZDHHC17 / RFU, NOM1 / Fold change vs veh, NOM1 / RFU, ARL8B / Fold change vs veh, ARL8B / RFU, ZBTB11 / Fold change vs veh, ZBTB11 / RFU, TAMM41 / Fold change vs veh, TAMM41 / RFU, KIAA1704 /// LOC100996395 / Fold change vs veh, KIAA1704 /// LOC100996395 / RFU, ING1 / Fold change vs veh, ING1 / RFU, TRMT61B / Fold change vs veh, TRMT61B / RFU, FUBP3 / Fold change vs veh, FUBP3 / RFU, TP53 / Fold change vs veh, TP53 / RFU, TNKS2 / Fold change vs veh, TNKS2 / RFU, ZFP14 / Fold change vs veh, ZFP14 / RFU, ACTR2 / Fold change vs veh, ACTR2 / RFU, PPP3R1 / Fold change vs veh, PPP3R1 / RFU, PIK3R1 / Fold change vs veh, PIK3R1 / RFU, HNRNPA1 / Fold change vs veh, HNRNPA1 / RFU, RNF170 / Fold change vs veh, RNF170 / RFU, ZNF28 / Fold change vs veh, ZNF28 / RFU, RNGTT / Fold change vs veh, RNGTT / RFU, OGT / Fold change vs veh, OGT / RFU, BRD1 / Fold change vs veh, BRD1 / RFU, MARS / Fold change vs veh, MARS / RFU, ZNF655 / Fold change vs veh, ZNF655 / RFU, FAHD1 / Fold change vs veh, FAHD1 / RFU, BDP1 / Fold change vs veh, BDP1 / RFU, LRRCC1 / Fold change vs veh, LRRCC1 / RFU, ARID1A / Fold change vs veh, ARID1A / RFU, ZNF146 / Fold change vs veh, ZNF146 / RFU, ZNF330 / Fold change vs veh, ZNF330 / RFU, GPN3 / Fold change vs veh, GPN3 / RFU, C9orf123 / Fold change vs veh, C9orf123 / RFU, N4BP2L2 / Fold change vs veh, N4BP2L2 / RFU, ARFIP1 / Fold change vs veh, ARFIP1 / RFU, FAM179B / Fold change vs veh, FAM179B / RFU, BCL10 / Fold change vs veh, BCL10 / RFU, UHRF1BP1L / Fold change vs veh, UHRF1BP1L / RFU, BET1 / Fold change vs veh, BET1 / RFU, CNOT2 / Fold change vs veh, CNOT2 / RFU, ZNF268 / Fold change vs veh, ZNF268 / Fold change vs veh, ZNF507 / RFU, DGCR2 / Fold change vs veh, DGCR2 / RFU, WDSUB1 / Fold change vs veh, WDSUB1 / Fold change vs veh, HSP90B1 /// MIR3652 / RFU, ADSS / Fold change vs veh, ADSS / RFU, GK / Fold change vs veh, GK / RFU, ZNF148 / Fold change vs veh, ZNF148 / RFU, TAF9 / Fold change vs veh, TAF9 / RFU, SLC1A5 / Fold change vs veh, SLC1A5 / RFU, SLMO2 / Fold change vs veh, SLMO2 / RFU, ABCC4 / Fold change vs veh, ABCC4 / RFU, LOC101060439 /// RAP1B / Fold change vs veh, LOC101060439 /// RAP1B / RFU, RFX7 / Fold change vs veh, RFX7 / RFU, GTPBP10 / Fold change vs veh, GTPBP10 / RFU, CNEP1R1 / Fold change vs veh, CNEP1R1 / RFU, BIVM-ERCC5 /// ERCC5 / Fold change vs veh, BIVM-ERCC5 /// ERCC5 / RFU, ILF3 / Fold change vs veh, ILF3 / RFU 11762660_at / Fold change /veh 11762660_at / RFU VCAN (11757783_s_at) / Fold change /veh VCAN (11757783_s_at) / RFU DDX43 (11728927_at) / Fold change /veh DDX43 (11728927_at) / RFU KRT8 (11758188_x_at) / Fold change /veh KRT8 (11758188_x_at) / RFU NKD1 (11759106_at) / Fold change /veh NKD1 (11759106_at) / RFU SRD5A1 (11742802_a_at) / Fold change /veh SRD5A1 (11742802_a_at) / RFU TPSAB1 /// TPSB2 (11721975_s_at) / Fold change /veh TPSAB1 /// TPSB2 (11721975_s_at) / RFU GSTM3 (11746129_a_at) / Fold change /veh GSTM3 (11746129_a_at) / RFU IL23R (11737362_x_at) / Fold change /veh IL23R (11737362_x_at) / RFU TMEM51 (11727254_a_at) / Fold change /veh TMEM51 (11727254_a_at) / RFU PIWIL2 (11732686_x_at) / Fold change /veh PIWIL2 (11732686_x_at) / RFU ORM1 (11744905_x_at) / Fold change /veh ORM1 (11744905_x_at) / RFU CCDC152 (11743942_at) / Fold change /veh CCDC152 (11743942_at) / RFU ECM1 (11717891_a_at) / Fold change /veh ECM1 (11717891_a_at) / RFU IL23R (11748794_a_at) / Fold change /veh IL23R (11748794_a_at) / RFU TNFAIP8L3 (11732012_x_at) / Fold change /veh TNFAIP8L3 (11732012_x_at) / RFU MBOAT4 (11741988_at) / Fold change /veh MBOAT4 (11741988_at) / RFU 11764193_at / Fold change /veh 11764193_at / RFU TMEM53 (11763286_at) / Fold change /veh TMEM53 (11763286_at) / RFU MAGEB2 (11727129_at) / Fold change /veh MAGEB2 (11727129_at) / RFU TMEM200A (11744735_a_at) / Fold change /veh TMEM200A (11744735_a_at) / RFU CCDC152 (11751479_a_at) / Fold change /veh CCDC152 (11751479_a_at) / RFU FAM211A (11726209_a_at) / Fold change /veh FAM211A (11726209_a_at) / RFU RGS16 (11746705_a_at) / Fold change /veh RGS16 (11746705_a_at) / RFU VCAN (11755009_s_at) / Fold change /veh VCAN (11755009_s_at) / RFU RHOB (11743442_s_at) / Fold change /veh RHOB (11743442_s_at) / RFU RGS16 (11720943_a_at) / Fold change /veh RGS16 (11720943_a_at) / RFU RGS16 (11720944_at) / Fold change /veh RGS16 (11720944_at) / RFU, VPS4B / Fold change vs veh, VPS4B / RFU, CREB1 / Fold change vs veh, CREB1 / RFU, DNAJC13 / Fold change vs veh, DNAJC13 / RFU, GNAQ / Fold change vs veh, GNAQ / RFU, CDK5R1 / Fold change vs veh, CDK5R1 / RFU, ZRANB3 / Fold change vs veh, ZRANB3 / RFU, CUL4A / Fold change vs veh, CUL4A / RFU, CCNY / Fold change vs veh, CCNY / RFU, UFL1 / Fold change vs veh, UFL1 / RFU, COG3 / Fold change vs veh, COG3 / RFU, DIAPH2 / Fold change vs veh, DIAPH2 / RFU, SKA2 / Fold change vs veh, SKA2 / RFU, AFF3 / Fold change vs veh, AFF3 / RFU, LMF1 / Fold change vs veh, LMF1 / RFU, IPO11 / Fold change vs veh, IPO11 / RFU, DFFB / Fold change vs veh, DFFB / RFU, FOXP1 / Fold change vs veh, FOXP1 / RFU, CARD8 / Fold change vs veh, CARD8 / RFU, STRN3 / Fold change vs veh, STRN3 / RFU, ADK / Fold change vs veh, ADK / RFU, RASSF2 / Fold change vs veh, RASSF2 / RFU, WIPF1 / Fold change vs veh, WIPF1 / RFU, LARP1B / Fold change vs veh, LARP1B / RFU, RASA1 / Fold change vs veh, RASA1 / RFU, RB1 / Fold change vs veh, RB1 / RFU, PPFIA1 / Fold change vs veh, PPFIA1 / RFU, MAT2A / Fold change vs veh, MAT2A / RFU, CCT5 / Fold change vs veh, CCT5 / RFU, WDR92 / Fold change vs veh, WDR92 / RFU, CUX1 / Fold change vs veh, CUX1 / RFU, TTC7A / Fold change vs veh, TTC7A / RFU, TMEM135 / Fold change vs veh, TMEM135 / RFU, DEPTOR / Fold change vs veh, DEPTOR / RFU, CPM / Fold change vs veh, CPM / RFU, DNAJB6 / Fold change vs veh, DNAJB6 / RFU, CACNA2D3 / Fold change vs veh, CACNA2D3 / RFU, DTX4 / Fold change vs veh, DTX4 / RFU, TFCP2 / Fold change vs veh, TFCP2 / RFU, GMCL1 /// GMCL1P1 / Fold change vs veh, GMCL1 /// GMCL1P1 / RFU, AEBP2 / Fold change vs veh, AEBP2 / RFU, SNHG1 /// SNORD22 /// SNORD25 /// SNORD26 /// SNORD27 /// SNORD28 /// SNORD29 /// SNORD31 / Fold change vs veh, SNHG1 /// SNORD22 /// SNORD25 /// SNORD26 /// SNORD27 /// SNORD28 /// SNORD29 /// SNORD31 / Fold change (Aza/veh), C12orf56 (ProbeSet 11735607_a_at) / Fold change (ACY-1035/veh), C12orf56 (ProbeSet 11735607_a_at) / Fold change (Aza/veh), FGFR1OP (ProbeSet 11751329_s_at) / Fold change (ACY-1035/veh), FGFR1OP (ProbeSet 11751329_s_at) / Fold change (Aza/veh), VPS36 (ProbeSet 11739960_a_at) / Fold change (ACY-1035/veh), VPS36 (ProbeSet 11739960_a_at) / RFU SYPL1 (11715823_x_at) / Fold change /veh SYPL1 (11715823_x_at) / RFU IGFBP7 (11715501_s_at) / Fold change /veh IGFBP7 (11715501_s_at) / RFU REEP3 (11722064_at) / Fold change /veh REEP3 (11722064_at) / RFU IGLL1 (11728026_x_at) / Fold change /veh IGLL1 (11728026_x_at): dose or concentration left out as unconfirmed
Conditions: MV-4-11 cells, 48 hours

Nc1ncn([C@@H]2O[C@H](CO)[C@@H](O)[C@H]2O)c(=O)n1 [azacitidine]
RFU FAM26E (11764081_at): 5.32 RFU
